“Also recorded” adds a separate entry of the source.
Tests used:
[1] = tested on: RyR1 Ca^2+ leak in human skinned skeletal muscle fibers; assay: t-system Ca2+ readout of RyR1 Ca2+ leak in human mechanically skinned skeletal muscle fibers; settings: for Reduction of RyR1 Ca2+ leak: at identified compound concentrations that only slightly affected Ca2+ release in EC coupling
[2] = molecular target: RyR1 (Sus scrofa, UniProt P16960); assay: FLT-FRET between D-FKBP and A-CaM bound to RyR1 in skeletal SR membranes (HTS and dose-response); format: binding, porcine; design: RyR1 in skeletal SR membranes, and RyR2 in cardiac SR membranes; from tissue; host or cells: porcine longissimus dorsi muscle (heavy SR vesicles); settings: 30 nM Ca2+; for Effect on FRET: RyR1 samples, micromolar compound, GSSG or GSH
Protocol: To confer compatibility with current HTS standards in industrial drug discovery facilities, we miniaturized our screening format from the previously established 384-well plates, requiring 50 μL sample per well[19], to 1536-well plates, requiring 5 μL sample per well. The complete 1280-compound library of pharmacologically active compounds (LOPAC) was applied as 5 nL/well in 40 columns of one 1536-well black-wall/black-bottom plate, with the remaining 8 columns loaded with 5 nL/well of DMSO, as no-drug controls. For each run of the screen, three plates were loaded with either (1) unlabeled HSR, or (2) HSR pre-incubated with donor-FKBP (D-FKBP; donor-only sample), or (3) donor-only sample that was additionally incubated with 0.3 μM acceptor-CaM (A-CaM) for 60 min prior to loading on the plate (donor-acceptor sample). This sub-saturating concentration of A-CaM was used to provide a readout that is sensitive to library compounds that may increase or decrease CaM binding affinity to RyR. To promote a homogenous population of RyR1 resembling that associated with myopathies, final assay conditions also included 30 nM Ca^2+ to represent resting (muscle relaxing) Ca^2+, and 5 mM oxidized glutathione (GSSG), which exaggerates the conditions associated with oxidative stress.
We acquired both FLT waveforms and fluorescence spectra, as previously described[19],[33],[34]. As previously observed, Hit effects were greatest following a 2-hour incubation with the library compounds (Supplementary Fig. 1a). As a result, all FRET results shown in Figs. 1 and 2, and Supplementary Fig. 2 are reported from the 2-hour incubation.
Necessary counter-screens to our pathological RyR1 conditions include evaluating compound effects in healthy conditions and on the cardiac isoform, RyR2. Using the same FRET assay as in HTS, we tested the dose response of key Hits from this screen and the previously HTS-identified RyR1 inhibitor, chloroxine, on healthy (5 mM GSH) and pathological (5 mM GSSG) conditions for both RyR1 in skeletal SR membranes, and RyR2 in cardiac SR membranes.
Skeletal HSR and cardiac CSR (0.4 mg/ml) membranes were independently pre-incubated with 60 nM D-FKBP, for 90 min, at 37 °C, in a solution containing 150 mM KCl, 5 mM GSH, 0.1 mg/mL BSA, 1 µg/mL Aprotinin/Leupeptin, 1 mM DTT and 20 mM PIPES (pH 7.0). To remove unbound D-FKBP, the SR membranes were spun down at 110,000 × g for 20 min, and then resuspended to 1 mg/mL (skeletal HSR) and 2 mg/mL (cardiac CSR) in binding buffer consisting of 150 mM KCl, 5 mM GSSG, 0.1 mg/mL BSA, 1μg/mL Aprotinin/Leupeptin and 20 mM PIPES, pH 7.0. These samples were then incubated with indicated [A-CaM] for 30 min at 22 °C in binding buffer containing 0.065 mM CaCl2 to give 30 nM free Ca^2+ in the presence of 1 mM EGTA (calculated by MaxChelator). This labeled SR sample was applied to the assay plates in 5 μL aliquots using a Multidrop™ Combi reagent dispenser (Thermo Scientific) with a standard-tube. An additional set of the assay plates were loaded with skeletal HSR or cardiac CSR labeled with only D-FKBP (no added A-CaM).
FLT measurements were conducted in a top-read FLT-PR designed and built by Fluorescence Innovations, Inc[33]. AF488 donor fluorescence was excited with a 473-nm microchip laser from Concepts Research Corporation (Belgium, WI), and emission was acquired with 490-nm long-pass and 517/20-nm band-pass filters (Semrock, Rochester, NY).
FLT waveforms for each well were fit based on a one-exponential decay function using least-squares minimization global-analysis software (Fluorescence Innovations, Inc.), as previously described[19],[33]. FRET efficiency (E) was determined as the fractional decrease of donor FLT (τD), due to the presence of acceptor fluorophore (τDA), using the following equation:1 E=1−τDA/τD, […]

[3] = 10 μM compound, 200 nM [Ca2+]cyto

RyR1, sequence (P16960 whole entry): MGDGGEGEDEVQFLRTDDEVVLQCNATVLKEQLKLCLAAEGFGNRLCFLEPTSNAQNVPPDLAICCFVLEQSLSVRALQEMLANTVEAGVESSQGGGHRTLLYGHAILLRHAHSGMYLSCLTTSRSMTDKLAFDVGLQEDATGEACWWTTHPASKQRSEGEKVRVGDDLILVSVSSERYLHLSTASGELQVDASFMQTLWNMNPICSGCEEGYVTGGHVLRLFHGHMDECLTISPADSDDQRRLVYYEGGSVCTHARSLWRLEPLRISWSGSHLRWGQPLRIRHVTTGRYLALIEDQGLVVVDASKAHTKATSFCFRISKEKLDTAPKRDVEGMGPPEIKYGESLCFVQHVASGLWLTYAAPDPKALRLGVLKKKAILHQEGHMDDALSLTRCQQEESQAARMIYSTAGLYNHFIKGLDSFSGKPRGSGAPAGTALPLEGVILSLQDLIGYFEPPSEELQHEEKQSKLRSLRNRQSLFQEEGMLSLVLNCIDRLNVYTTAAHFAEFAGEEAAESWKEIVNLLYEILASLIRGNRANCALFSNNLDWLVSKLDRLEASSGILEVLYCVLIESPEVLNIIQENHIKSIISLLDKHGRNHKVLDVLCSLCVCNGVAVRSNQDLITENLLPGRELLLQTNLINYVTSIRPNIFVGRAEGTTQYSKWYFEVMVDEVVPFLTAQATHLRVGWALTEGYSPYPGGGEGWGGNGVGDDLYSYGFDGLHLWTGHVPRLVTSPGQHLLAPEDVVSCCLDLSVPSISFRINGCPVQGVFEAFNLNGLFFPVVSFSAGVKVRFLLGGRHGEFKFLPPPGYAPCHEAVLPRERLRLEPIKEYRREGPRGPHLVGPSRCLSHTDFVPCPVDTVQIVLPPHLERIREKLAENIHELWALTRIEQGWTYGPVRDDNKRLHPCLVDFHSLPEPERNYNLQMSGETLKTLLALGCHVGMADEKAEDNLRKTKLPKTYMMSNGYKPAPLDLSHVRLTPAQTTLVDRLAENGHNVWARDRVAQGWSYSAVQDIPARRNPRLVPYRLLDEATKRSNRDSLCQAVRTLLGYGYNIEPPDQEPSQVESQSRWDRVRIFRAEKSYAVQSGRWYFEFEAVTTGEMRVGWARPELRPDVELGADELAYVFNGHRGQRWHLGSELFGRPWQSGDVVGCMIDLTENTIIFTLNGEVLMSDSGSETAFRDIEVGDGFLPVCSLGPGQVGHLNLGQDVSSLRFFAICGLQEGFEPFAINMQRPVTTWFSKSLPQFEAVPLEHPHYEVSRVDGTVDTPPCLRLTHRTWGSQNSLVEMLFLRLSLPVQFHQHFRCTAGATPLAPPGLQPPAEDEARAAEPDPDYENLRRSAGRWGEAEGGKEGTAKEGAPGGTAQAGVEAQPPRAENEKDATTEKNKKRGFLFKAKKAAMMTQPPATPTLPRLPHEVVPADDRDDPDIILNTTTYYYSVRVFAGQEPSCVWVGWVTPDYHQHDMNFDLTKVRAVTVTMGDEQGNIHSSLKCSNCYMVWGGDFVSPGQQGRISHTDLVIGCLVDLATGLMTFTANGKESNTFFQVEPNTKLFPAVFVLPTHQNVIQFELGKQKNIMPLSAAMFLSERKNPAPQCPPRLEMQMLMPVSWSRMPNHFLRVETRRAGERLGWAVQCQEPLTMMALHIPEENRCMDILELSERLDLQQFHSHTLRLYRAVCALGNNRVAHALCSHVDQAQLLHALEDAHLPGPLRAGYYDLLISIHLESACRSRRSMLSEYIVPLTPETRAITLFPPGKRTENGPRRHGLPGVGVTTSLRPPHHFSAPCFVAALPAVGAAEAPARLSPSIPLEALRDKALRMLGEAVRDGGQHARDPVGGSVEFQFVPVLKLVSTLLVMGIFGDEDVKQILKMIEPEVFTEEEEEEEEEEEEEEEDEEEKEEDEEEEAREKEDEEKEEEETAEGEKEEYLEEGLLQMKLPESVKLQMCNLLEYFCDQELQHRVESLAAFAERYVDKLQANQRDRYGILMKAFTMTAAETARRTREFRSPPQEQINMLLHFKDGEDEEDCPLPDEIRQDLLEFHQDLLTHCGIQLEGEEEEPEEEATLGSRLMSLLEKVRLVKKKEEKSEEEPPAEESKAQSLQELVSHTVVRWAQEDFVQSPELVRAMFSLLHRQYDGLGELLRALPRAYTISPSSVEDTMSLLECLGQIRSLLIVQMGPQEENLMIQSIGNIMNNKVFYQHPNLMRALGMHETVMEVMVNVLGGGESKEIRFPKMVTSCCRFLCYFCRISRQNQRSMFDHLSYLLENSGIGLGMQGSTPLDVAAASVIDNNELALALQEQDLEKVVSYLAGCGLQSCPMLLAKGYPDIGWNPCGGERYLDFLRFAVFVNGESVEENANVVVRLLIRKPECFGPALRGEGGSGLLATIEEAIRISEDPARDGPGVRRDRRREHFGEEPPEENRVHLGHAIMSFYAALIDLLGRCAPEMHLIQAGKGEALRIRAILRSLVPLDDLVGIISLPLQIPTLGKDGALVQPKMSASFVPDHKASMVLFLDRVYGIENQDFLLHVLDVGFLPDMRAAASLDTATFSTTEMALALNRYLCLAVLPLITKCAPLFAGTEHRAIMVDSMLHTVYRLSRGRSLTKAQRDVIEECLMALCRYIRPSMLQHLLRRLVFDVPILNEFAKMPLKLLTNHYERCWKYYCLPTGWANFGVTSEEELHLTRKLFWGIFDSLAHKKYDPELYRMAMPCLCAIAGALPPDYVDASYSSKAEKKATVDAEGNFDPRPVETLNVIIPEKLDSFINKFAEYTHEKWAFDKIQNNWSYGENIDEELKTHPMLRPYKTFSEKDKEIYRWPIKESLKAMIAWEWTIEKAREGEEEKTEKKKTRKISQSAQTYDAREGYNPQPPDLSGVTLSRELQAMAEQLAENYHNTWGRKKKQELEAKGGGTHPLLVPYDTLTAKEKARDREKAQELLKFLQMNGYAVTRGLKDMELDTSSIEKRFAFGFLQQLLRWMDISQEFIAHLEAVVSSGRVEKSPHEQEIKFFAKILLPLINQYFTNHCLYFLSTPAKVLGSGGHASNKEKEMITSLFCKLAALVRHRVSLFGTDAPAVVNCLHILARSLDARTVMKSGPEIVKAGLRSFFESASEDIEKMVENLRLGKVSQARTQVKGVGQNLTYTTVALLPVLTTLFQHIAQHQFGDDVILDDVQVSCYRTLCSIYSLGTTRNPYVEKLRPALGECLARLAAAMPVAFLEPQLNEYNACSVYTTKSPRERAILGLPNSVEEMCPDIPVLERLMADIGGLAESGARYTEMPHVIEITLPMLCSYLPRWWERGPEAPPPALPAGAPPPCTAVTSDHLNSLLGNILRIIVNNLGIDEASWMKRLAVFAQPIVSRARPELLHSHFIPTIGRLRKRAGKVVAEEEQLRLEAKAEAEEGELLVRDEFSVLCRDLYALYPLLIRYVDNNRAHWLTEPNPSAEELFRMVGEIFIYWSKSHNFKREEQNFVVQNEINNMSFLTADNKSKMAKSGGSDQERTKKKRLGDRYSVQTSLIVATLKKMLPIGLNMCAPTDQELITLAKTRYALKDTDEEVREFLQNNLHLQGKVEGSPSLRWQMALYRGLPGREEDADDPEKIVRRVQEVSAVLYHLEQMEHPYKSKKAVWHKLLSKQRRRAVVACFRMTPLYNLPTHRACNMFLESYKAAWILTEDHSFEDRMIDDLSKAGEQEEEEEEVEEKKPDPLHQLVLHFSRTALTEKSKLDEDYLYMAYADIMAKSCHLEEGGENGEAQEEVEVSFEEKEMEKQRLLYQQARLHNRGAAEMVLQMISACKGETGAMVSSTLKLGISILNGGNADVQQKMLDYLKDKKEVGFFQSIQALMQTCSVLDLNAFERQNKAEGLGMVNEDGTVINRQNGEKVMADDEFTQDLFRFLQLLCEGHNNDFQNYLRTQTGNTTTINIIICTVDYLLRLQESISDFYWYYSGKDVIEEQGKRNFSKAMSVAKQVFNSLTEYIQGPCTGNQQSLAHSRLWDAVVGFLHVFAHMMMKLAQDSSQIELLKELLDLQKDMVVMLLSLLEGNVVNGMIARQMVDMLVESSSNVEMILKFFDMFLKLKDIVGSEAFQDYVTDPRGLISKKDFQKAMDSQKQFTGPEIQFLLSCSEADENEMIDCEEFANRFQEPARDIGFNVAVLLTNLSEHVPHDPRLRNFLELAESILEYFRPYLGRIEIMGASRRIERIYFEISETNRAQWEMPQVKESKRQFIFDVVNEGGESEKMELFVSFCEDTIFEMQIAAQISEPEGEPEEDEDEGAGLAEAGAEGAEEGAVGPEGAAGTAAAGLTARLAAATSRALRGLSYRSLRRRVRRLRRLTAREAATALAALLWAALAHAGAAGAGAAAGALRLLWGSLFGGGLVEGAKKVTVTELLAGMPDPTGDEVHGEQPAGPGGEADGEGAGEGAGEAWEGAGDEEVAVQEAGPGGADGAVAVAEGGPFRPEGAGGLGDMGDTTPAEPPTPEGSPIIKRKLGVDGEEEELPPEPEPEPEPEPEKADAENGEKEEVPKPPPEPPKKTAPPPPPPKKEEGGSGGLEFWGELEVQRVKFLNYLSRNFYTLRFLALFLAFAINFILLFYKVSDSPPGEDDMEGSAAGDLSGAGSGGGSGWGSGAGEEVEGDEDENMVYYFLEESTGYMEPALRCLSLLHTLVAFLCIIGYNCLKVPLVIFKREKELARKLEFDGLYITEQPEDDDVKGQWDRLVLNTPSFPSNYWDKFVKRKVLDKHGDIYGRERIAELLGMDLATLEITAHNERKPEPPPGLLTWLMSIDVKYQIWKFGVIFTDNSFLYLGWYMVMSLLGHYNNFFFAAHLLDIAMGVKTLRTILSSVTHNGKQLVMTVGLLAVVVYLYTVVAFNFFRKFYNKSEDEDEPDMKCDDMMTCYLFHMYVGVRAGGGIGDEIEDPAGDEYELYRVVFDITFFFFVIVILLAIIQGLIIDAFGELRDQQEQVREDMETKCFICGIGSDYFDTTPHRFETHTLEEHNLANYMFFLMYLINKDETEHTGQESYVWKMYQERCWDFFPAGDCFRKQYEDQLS

| SMILES | Effect on steady-state [Ca2+]t-sys vs control (RyR1 leak) ([1]; 1 μM compound, 200 nM [Ca2+]cyto) | Effect on [Ca2+]t-sys relative to RyR blocker tetracaine [1, 3] | Effect on steady-state [Ca2+]t-sys vs control (RyR1 leak) [1, 3] | Reduction of RyR1 Ca2+ leak [1] [%] | Hit in primary FLT-FRET HTS of LOPAC (FRET altered by > 4 SD vs DMSO) ([2]; 10 μM compound, 2-hour incubation, 5 mM GSSG, 0.3 μM A-CaM, 1536-well) | Effect on FRET [2] | Effect on steady-state [Ca2+]t-sys vs control (RyR1 leak) ([1]; 100 μM compound, 200 nM [Ca2+]cyto) | Effect on steady-state [Ca2+]t-sys (RyR1 leak) ([1]; all three concentrations tested (1, 10 and 100 μM), towards level of 1 mM tetracaine) |
| --- | --- | --- | --- | --- | --- | --- | --- | --- |
| O=c1c(O)c(-c2cc(O)c(O)c(O)c2)oc2cc(O)cc(O)c12 [myricetin] | decreased | went beyond the effects of 1 mM tetracaine | decreased | > 50 | identified; also recorded: increased the FRET efficiency readout | increases FRET | – | – |
| Oc1c(Cl)cc(Cl)c2cccnc12 [chloroxine] | – | – | – | > 50 | – | increased | statistically decreased | progressively reduced |

Source: publication PMC7000700, “RyR1-targeted drug discovery pipeline integrating FRET-based high-throughput screening and human myofiber dynamic Ca^2+ assays” (Scientific Reports, 2020)
